From patent US20160311788A1, “Antifouling Compounds And Use Thereof” (National University of Singapore, priority 2008, published 2016)
Converted amounts (≈) assume the structure as drawn. Read-outs that look alike come from different tables or passages of the source.

How the values were obtained:
[1] = tested on: cyprids of Balanus amphitrite; test: barnacle settlement assay; assay type: in vivo; conditions: for IC50: Amphibalanus amphitrite, 24 h, Table 3(a), concentration that caused 50% settlement inhibition, 24 hours, cyprids, read-out: ED50 (the source's name); for percentage of cyprids that settled: after 24 hours incubation, averaged over two trials
Procedure: (§1) Pure compounds were suspended in DMSO and sonicated to obtain a stock solution of 50 mg ml^−1 in DMSO. This stock solution is stored at −20° C. in 4 ml amber screw cap vials. For the bioassays, a small volume of stock solution was added to 1 μm filtered seawater in a glass scintillation vial. This suspension was then sonicated around 10 minutes. Serial dilutions were generated to the required range of concentrations. Serial dilution of the equivalent amounts of DMSO in seawater was used as the control.
(§2) The barnacle bioassay method used follows from the method first introduced by Rittschof et al. (1992), and subsequently by other authors (Willemsen et al., 1998). This method is now standard practice for many antifouling screening of novel compounds.
Barnacle settlement assays were based on methodology from Rittschof et al. (1992). Barnacle larvae from field-collected adults were reared on an algal mixture of 1:1 v/v of Tetraselmis suecica and Chaetoceros muelleri at 25° C., at approximately 5×10^5 cells per ml density. On this regime, larvae metamorphose to cyprids in 5 days. These cyprids were aged at 4° C. for 2-3 days, and 45-70% settlement after 24 hours (Willemsen et al., 1998).
Settlement tests were conducted in 7 ml neutral glass vials (Samco® T1 03N1) 34 mm by 23 mm diameter, with 20-40 cyprids per well. Test solutions were made up to twice the required final concentration. 0.5 ml of test solution was added into each well, and cyprids were transferred into each well in 0.5 ml of seawater. Assays were done in triplicate. As before, there were two sets of controls, a blank control consisting 3 tubes of seawater only, and DMSO control consisting of the equivalent dilution series with DMSO without compound. After 24 hours, larvae that had attached and metamorphosed were enumerated and the result expressed as percentage settlement. Larvae not attached were scored as not settled. The assays were repeated and the concentration that caused 50% settlement inhibition (ED50) was determined by pro bit analysis using a basic computer program (Lieberman, 1983), or by estimation from graphed data.

[2] = tested on: marine bacteria strain S18; test: disc inhibition assay, strain S18; assay type: cell-based, Microbacterium esteraromaticum; conditions: strain 18, 50 μg of compound per disc
Procedure: (§3) The disc inhibition assay was used. This assay is a conventional method routinely used for screening antibacterial compounds to determine degree of susceptibility to antibacterial compounds. The diameter of the zone of inhibition is proportional to the degree of susceptibility of the bacterial strain. The compounds were tested against 13 strains of marine bacteria isolated from Singapore coastal waters.
(§4) 13 strains of marine bacteria were isolated from fouling communities located in the coastal waters around Singapore. These were characterized in earlier studies and reported in Teo et al. (U.S. patent application Ser. No. 11/265,833) and Choong et al (in prep). In addition, four reference bacterial strains were added tested: Escherichia coli (Strain K12, ATCC 15222), E. coli (strain DH5a), Pseudomonas aeruginosa (strain LMG 12228; ATCC 15692) and P. putida (strain KT2440; ATCC 47054). All the bacteria were also tested against five antibiotics: ampicillin (AMP), tetracycline (TETR), erythromycin (ERY), chloramphenicol (CHL) and streptomycin (STREP).
(§5) Disks comprising the compounds to be tested were prepared as follows. The antibacterial assay, the pure compounds were made up to a concentration of 2 mgml^−1 in DMSO. […] Equivalent volume of DMSO was used inoculated for the control.
(§6) For all disk inhibition assays, bacterial cultures were grown in marine broth (Pronadisa #1217.00). Sterile swabs dipped into the cultures were used to inoculate Marine Agar plates with a bacterial lawn by smearing the culture over the surface. After inoculating the plates, discs with antibiotics, pharmaceuticals or control blanks were placed on each plate. Each concentration of antibiotic or pharmaceutical was tested with two replicates. After the disks were placed on the agar surface, plates were incubated overnight in the dark at 35° C. After incubation, plates were examined for zones of inhibition or clearing around control and treated disks. The diameter of any zone of clearing or inhibition was measured using Vernier calipers. There were two replicates per treatment, and the average was taken.

[3] = tested on: marine bacteria strain S30; test: disc inhibition assay, strain S30; assay type: cell-based, Bacillus borophilicus; conditions: strain 30, 50 μg of compound per disc
Procedure: as §3, §4
(§7) Disks comprising the compounds to be tested were prepared as follows. The antibacterial assay, the pure compounds were made up to a concentration of 2 mgml^−1 in DMSO. 25 μl of the stock was pipetted onto each 6 mm sterile disc (Macherey-Nagel #484000) to obtain 50 μg of compound per disc. Equivalent volume of DMSO was used inoculated for the control.
as §6

[4] = tested on: marine bacteria strain S14; test: disc inhibition assay, strain S14; assay type: cell-based, Vibrio probioticus; conditions: strain 14, 50 μg of compound per disc
Procedure: as §3, §4, §5, §6

[5] = tested on: marine bacteria strain S27; test: disc inhibition assay, strain S27; assay type: cell-based, Tenacibaculum lutimaris; conditions: strain 27, 50 μg of compound per disc; for zone of inhibition at 50 µg/disc: Tenacibaculum lutimaris, S27, 24 h, read-out: zone of inhibition
Procedure: as §3, §4, §7, §6

[6] = tested on: marine bacteria strain S17; test: disc inhibition assay, strain S17; assay type: cell-based, Gordonia terrae; conditions: strain 17, 50 μg of compound per disc
Procedure: as §3, §4, §7, §6

[7] = tested on: marine bacteria strain S29; test: disc inhibition assay, strain S29; assay type: cell-based, Bacillus hwajinpoensis; conditions: strain 29, 50 μg of compound per disc
Procedure: as §3, §4, §7, §6

[8] = tested on: marine bacteria strain S1; test: disc inhibition assay, strain S1; assay type: cell-based, Rhodovulum iodosum; conditions: strain 1, 50 μg of compound per disc
Procedure: as §3, §4, §7, §6

[9] = tested on: marine bacteria strain S10; test: disc inhibition assay, strain S10; assay type: cell-based, Halobacillus trueperi; conditions: strain 10, 50 μg of compound per disc
Procedure: as §3, §4, §7, §6

[10] = tested on: marine bacteria strain S28; test: disc inhibition assay, strain S28; assay type: cell-based, Arthrobacter protophormial; conditions: strain 28, 50 μg of compound per disc
Procedure: as §3, §4, §7, §6

[11] = tested on: marine bacteria strain S3; test: disc inhibition assay, strain S3; assay type: cell-based, Erythrobacter aquimaris; conditions: strain 3, 50 μg of compound per disc; for zone of inhibition at 50 µg/disc: Qipengyuania aquimaris, S3, 24 h, read-out: zone of inhibition
Procedure: as §3, §4, §7, §6

[12] = tested on: marine bacteria strain S16; test: disc inhibition assay, strain S16; assay type: cell-based, Pseudoalteromonas piscicida; conditions: for zone of inhibition at 50 µg/disc: Pseudoalteromonas piscicida, S16, 24 h
Procedure: as §3, §4, §7, §6

[13] = tested on: marine bacteria strain S9; test: disc inhibition assay, strain S9; assay type: cell-based, Bacillus algicola; conditions: Guptibacillus algicola, S9, 24 h; strain 9, 50 μg of compound per disc; read-out: zone of inhibition
Procedure: as §3, §4, §7, §6

[14] = tested on: marine bacteria strain S4; test: disc inhibition assay, strain S4; assay type: cell-based, Bacillus algicola; conditions: strain 4, 50 μg of compound per disc
Procedure: as §3, §4, §7, §6

[15] = tested on: Stage II nauplii of Balanus amphitrite; test: barnacle toxicity assay; assay type: in vivo
Procedure: as §1, §2
Toxicity assays were modified from Rittschof et al. (1992). Stage II naupliar larvae used in tests were obtained from Balanus amphitrite adults collected from inter-tidal rock walls at Kranji mangrove, Singapore. Larvae were collected from a container of adults by attraction to a point source of light and transferred to 500 ml of fresh seawater. Next, larvae were re-concentrated with a fiber optic light and added to assays.
Duplicate assays were conducted in 2 ml glass vials (La Pha Pack® PN 11-14-0544) in 1 ml of filtered seawater for 22 to 24 hours. The assays were repeated for confirmation. There were two sets of controls, a blank control consisting of 3 tubes of seawater only, and DMSO control consisting of the equivalent dilution series with DMSO without compound). For the compounds, there were 3 tubes of each for each test concentration. The assay was initiated by addition of barnacle naupliar in 50 μl of seawater. After 22 to 24 hours of incubation at 25-27° C. solutions containing test animals were transferred to a Bogorov tray and scored as living or dead. Moribund larvae were scored as dead. Results were confirmed by repeating the assay. Data were combined and the concentration that caused 50% mortality (LD50) was calculated by probit analysis using a basic computer program (Libermann, 1983). If data were not appropriate for probit analysis, the LD50 was estimated from graphed data.

[16] = Table 3(a), concentration that caused 50% mortality, 22 to 24 hours, Stage II nauplii
[17] = Table 3(b), highest concentration tested 25 μg/ml

Row | Structure (SMILES) | IC50 [1] | zone of inhibition [4] | zone of inhibition [8] | zone of inhibition at 50 µg/disc [13] | LD50 [15, 16] | LD50 [15, 17] | percentage of cyprids that settled ([1]; 0.2 ug/ml) | percentage of cyprids that settled ([1]; 1 ug/ml) | percentage of cyprids that settled ([1]; 5 ug/ml) | percentage of cyprids that settled ([1]; 25 ug/ml) | also measured
1 | O=C(Cc1ccccc1)N1CCC(O)(c2ccccc2)CC1 [Compound 10.4] | 15 µg/mL (≈ 50.8 µM) | − | − | 2 to 5 mm | > 50 µg/mL |  |  |  |  |  | zone of inhibition [2]: −; zone of inhibition [3]: −; zone of inhibition at 50 µg/disc [5]: 2 to 5 mm; zone of inhibition [6]: −; zone of inhibition [7]: −; zone of inhibition [9]: −; zone of inhibition [10]: −; zone of inhibition at 50 µg/disc [11]: 2 to 5 mm; zone of inhibition at 50 µg/disc ([12]; strain 16, 50 μg of compound per disc, read-out: zone of inhibition): 2 to 5 mm; zone of inhibition [14]: −
2 | CCCCCCC(CCCCCC)C(=O)N1CCCCC1 [Compound 12.12] |  |  |  |  |  | 0.2 to 1 µg/mL |  |  |  |  | 
3 | CCCCCCC(C(=O)N1CCCCC1)c1ccccc1 (stereo not drawn) [Compound 12.11] |  |  |  |  |  | >25 µg/mL |  |  |  |  | 
4 | CN1CCN(C(=O)C(c2ccccc2)c2ccccc2)CC1 [Compound 4.2, 1-(4-Methylpiperazin-1-yl)-2,2-diphenylethanone] | > 50 µg/mL |  |  |  | 14.32 µg/mL |  |  |  |  |  | anti-settlement activity in words [1]: eliminated anti-settlement behaviour
5 | CCCCCCC(CCCC)C(=O)N1CCCCC1 (stereo not drawn) [Compound 12.8] | < 10 µg/mL |  |  |  |  | 3.35 µg/mL | 25.82% | 8.62% | 0% | 0% | 
6 | CN1CCC(O)(c2ccc(Cl)cc2)CC1 [Compound 4.6] | < 10 µg/mL | − | − | 2 to 5 mm |  |  |  |  |  |  | zone of inhibition [2]: −; zone of inhibition [3]: −; zone of inhibition [5]: −; zone of inhibition [6]: −; zone of inhibition [7]: −; zone of inhibition [9]: −; zone of inhibition [10]: −; zone of inhibition [11]: −; zone of inhibition at 50 µg/disc [12]: 2 to 5 mm; zone of inhibition [14]: −
7 | CCCCCCCCCCC(CCCC)C(=O)N1CCCCC1 (stereo not drawn) [Compound 12.9] |  |  |  |  |  | >25 µg/mL | 28.14% | 10.56% | 1.94% | 1.32% | 
8 | O=C(C(c1ccccc1)c1ccccc1)N1CCC(CCO)CC1 [Compound 9.2] | > 50 µg/mL |  |  |  | 49.24 µg/mL |  |  |  |  |  | 
9 | CCCCCCCCCCC(CCCCCCCC)C(=O)N1CCCCC1 (stereo not drawn) [Compound 12.10] |  |  |  |  |  | >25 µg/mL | 12.5% | 13.00% | 11.40% | 17.88% | 
10 | CCCCC(CCCC)C(=O)N1CCCCC1 [Compound 12.2, 2-Butyl-1-(piperidin-1-yl)hexan-1-one] |  | − | − | 2 to 5 mm |  |  | 8.94% | 8.42% | 8.37% | 0% | zone of inhibition at 50 µg/disc ([2]; Microbacterium esteraromaticum, S18, 24 h, read-out: zone of inhibition): 5 to 10 mm; zone of inhibition at 50 µg/disc ([3]; Bacillus, S30, 24 h, read-out: zone of inhibition): 2 to 5 mm; zone of inhibition at 50 µg/disc [5]: 2 to 5 mm; zone of inhibition at 50 µg/disc ([6]; Gordonia terrae, S17, 24 h, read-out: zone of inhibition): 2 to 5 mm; zone of inhibition at 50 µg/disc ([7]; Guptibacillus hwajinpoensis, S29, 24 h, read-out: zone of inhibition): 2 to 5 mm; zone of inhibition at 50 µg/disc ([9]; Halobacillus trueperi, S10, 24 h, read-out: zone of inhibition): 2 to 5 mm; zone of inhibition at 50 µg/disc ([10]; Arthrobacter, S28, 24 h, read-out: zone of inhibition): 2 to 5 mm; zone of inhibition at 50 µg/disc [11]: 5 to 10 mm; zone of inhibition ([12]; strain 16, 50 μg of compound per disc): −; zone of inhibition at 50 µg/disc ([14]; Guptibacillus algicola, S4, 24 h, read-out: zone of inhibition): 2 to 5 mm
